These results are taken from ChEMBL document CHEMBL3526010, “Pharmacokinetics, biotransformation, and mass balance of edoxaban, a selective, direct factor Xa inhibitor, in humans” (Drug Metab Dispos, 2012).

Data set [1] in a line: Drug excretion in urine of human treated with 60 mg, po of [14C]edoxaban after 168 hrs by radio-HPLC chromatogram analysis. The format is ADME, organism-based. Particulars: in vivo.
Data set [2] can be described thus: Drug excretion in feces of human treated with 60 mg, po of [14C]edoxaban after 168 hrs by radio-HPLC chromatogram analysis. Format: ADME, organism-based. Particulars: in vivo.
Data set [3] deals with Plasma. Put plainly: Cmax in human plasma treated with 60 mg, po of [14C]edoxaban by LC-MS/MS analysis. The format is ADME, organism-based. Details: dose 60 mg, route oral. Conditions: in vivo.
Data set [4] relates to Plasma. The data set is described as follows: Tmax in human plasma treated with 60 mg, po of [14C]edoxaban by LC-MS/MS analysis. Conditions: in vivo. Format: ADME, organism-based.
The test system of data set [5] is Plasma. Put plainly: AUC (0 to t) in human plasma treated with 60 mg, po of [14C]edoxaban by LC-MS/MS analysis. The format is ADME, organism-based. Particulars: in vivo.
Data set [6] relates to Plasma. Put plainly: AUC (0 to infinity) in human plasma treated with 60 mg, po of [14C]edoxaban by LC-MS/MS analysis. Format: ADME, organism-based. On the set-up: dose 60 mg, time infinity, route oral. Conditions: in vivo.
The test system of data set [7] is Plasma. Put plainly: Terminal elimination half life in human plasma treated with 60 mg, po of [14C]edoxaban by LC-MS/MS analysis. The format is ADME, organism-based.
A short description of data set [8]: Retention time of the compound. Format: physicochemical.
Data set [9] is described as follows: Elimination half life in human. Particulars: in vivo, read-out: beta t1/2 (converted). The format is ADME, organism-based.
The subject of data set [10] is Plasma. The data set is described as follows: Cmax in human plasma at 60 mg, po by radio-HPLC chromatogram analysis. The format is ADME, organism-based. Details: dose 60 mg, route oral. Conditions: in vivo.
Data set [11] deals with Blood. The data set is described as follows: Cmax in human whole blood at 60 mg, po by radio-HPLC chromatogram analysis. Format: ADME, organism-based. Details: dose 60 mg, route oral. Conditions: in vivo.
Data set [12] concerns Plasma. The data set is described as follows: AUC (0 to t) in human plasma at 60 mg, po by radio-HPLC chromatogram analysis. The format is ADME, organism-based. Conditions: in vivo.
For data set [13], the system named is Blood. The data set is described as follows: AUC (0 to t) in human whole blood at 60 mg, po by radio-HPLC chromatogram analysis. The format is ADME, organism-based. Particulars: in vivo.
Data set [14] has as its system Plasma. The data set is described as follows: AUC (0 to infinity) in human plasma at 60 mg, po by radio-HPLC chromatogram analysis. Format: ADME, organism-based. Details: dose 60 mg, time infinity, route oral. Conditions: in vivo.
Data set [15] relates to Blood. The data set is described as follows: AUC (0 to infinity) in human whole blood at 60 mg, po by radio-HPLC chromatogram analysis. The format is ADME, organism-based. Conditions: in vivo. Details: dose 60 mg, time infinity, route oral.
Data set [16] can be described thus: Drug metabolism in human assessed as metabolite excretion in feces at 60 mg, po after 168 hrs by radio-HPLC chromatogram analysis. The format is ADME, organism-based. Particulars: in vivo.
A short description of data set [17]: Cmax in human plasma at 60 mg, po by LC-MS/MS analysis. Details: dose 60 mg, route oral. Format: ADME, organism-based.
A short description of data set [18]: Tmax in human plasma at 60 mg, po by LC-MS/MS analysis. The format is ADME, organism-based.
The nature of data set [19]: AUC (0 to t) in human plasma at 60 mg, po by LC-MS/MS analysis. Format: ADME, organism-based.
A short description of data set [20]: AUC (0 to infinity) in human plasma at 60 mg, po by LC-MS/MS analysis. The format is ADME, organism-based. Details: dose 60 mg, route oral, time infinity.
A short description of data set [21]: Terminal elimination half life in human plasma at 60 mg, po by LC-MS/MS analysis. Format: ADME, organism-based. Conditions: read-out: beta t1/2 (converted).
The subject of another data set is Homo sapiens. The data set is described as follows: Toxicity in human assessed as sign of adverse effect at 60 mg, po. Conditions: in vivo. The format is organism-based.
The nature of a further data set: clinical. Conditions: human, in vivo.

One may read the Tmax as the time at which the peak concentration occurs. As to `CN1CCc2nc(C(=O)N[C@@H]3C[C@@H](C(=O)O)CC[C@@H]3NC(=O)C(=O)Nc3ccc(Cl)cn3)sc2C1`, the Drug excretion in [1] was determined as 1.56%; in [2] it was 1.93%. Further, in the data set with Plasma [3], the Cmax was 22.2 ng/mL. Further, in the data set with Plasma [4], the Tmax is 1.8 h. The compound also showed an AUCt with Plasma [5] of 145.5 ng·h/mL. The same compound registered an AUC in the data set on Plasma [6] of 147 ng·h/mL. Besides, the “beta t1/2” value in the data set on Plasma [7] came out at 8.2 h. Further, the Retention_time in data set [8] came out at 40.84 min.
As to `CN(C)C(=O)[C@H]1CC[C@H](NC(=O)C(=O)Nc2ccc(Cl)cn2)[C@H](NC(=O)c2nc3c(s2)C[N+](C)([O-])CC3)C1` (stereo partly specified), in [8], the Retention_time amounted to 41.45 min.
`CNC(=O)[C@H]1CC[C@H](NC(=O)C(=O)Nc2ccc(Cl)cn2)[C@H](NC(=O)c2nc3c(s2)CN(C)CC3)C1` (stereo in doubt; M8): the values for the Drug excretion entry in data set [1] (BLD = below limit of detection) and in data set [2] were “BLD” and 0.34%, respectively. In the data set with Plasma [3], this compound registered a Cmax of 0.63 ng/mL. Also, the Tmax with Plasma [4] turned out to be 1.8 h. The AUCt with Plasma [5] came out at 3.5 ng·h/mL. This compound also showed an AUC in the data set on Plasma [6] of 4.41 ng·h/mL. Besides, in the data set with Plasma [7], the “beta t1/2” value came out at 9 h. In [8], the Retention_time is on record as 49.97 min.
For `CN(C)C(=O)[C@H]1CC[C@H](NC(=O)C(=O)Nc2ccc(Cl)cn2)[C@H](NC(=O)c2nc3c(s2)C[N+](C)([C@@H]2O[C@H](C(=O)[O-])[C@@H](O)[C@H](O)[C@H]2O)CC3)C1` (stereo partly specified), the Retention_time in data set [8] is given as 38.9 min.
One may read the AUC(0-t) as the area under the concentration-time curve up to a stated or last time point. Low values mean low exposure, high ones high exposure. Broadly, the AUC(0-inf) is total exposure, with the tail of the curve extrapolated. A lower AUC(0-inf) goes with low exposure. Take `CN1CCc2nc([14C](=O)N[C@@H]3C[C@@H](C(=O)N(C)C)CC[C@@H]3NC(=O)C(=O)Nc3ccc(Cl)cn3)sc2C1`: the half-life was 8 h in data set [9] and 7.4 h in data set [21]. Further, the Cmax in the data set on Plasma [10] is 0.349 ugequiv/ml; in the data set on Blood [11] it was 0.352 ugequiv/ml; in [17], 332 ng/mL. Also, the values for the AUCt with Plasma [12] and in the data set with Blood [13] were 1.683 ugequiv.h/ml and 1.269 ugequiv.h/ml, respectively. Besides, the AUC with Plasma [14] stood at 1.947 ugequiv.h/ml; with Blood [15] it was 1.673 ugequiv.h/ml. In addition, the Drug excretion in data set [16] was found to be 0.05%. Also, the Tmax worked out at 0.5 h in data set [18] and 1 h in the data set “clinical”. This compound returned an AUC(0-t) in data set [19] of 1580 ng·h/mL. Moreover, the AUC(0-inf) in data set [20] was 1600 ng·h/mL. Besides, the Activity entry with Homo sapiens is “Non-toxic”. In data set [8], the Retention_time is 54.08 min.
As to `CN(C)C(=O)[C@H]1CC[C@H](NC(=O)C(=O)Nc2ccc(Cl)cn2)[C@H](NC(=O)c2nc3c(s2)CNCC3)C1`, the Drug excretion is 0.45% in [1] and 1.66% in data set [2]. This compound also came in with a Cmax in the data set with Plasma [3] of 6.99 ng/mL. In addition, the Tmax in the data set with Plasma [4] amounted to 1 h. Besides, in the data set on Plasma [5], the AUCt amounted to 55.1 ng·h/mL. The compound also returned an AUC with Plasma [6] of 56.2 ng·h/mL. Also, the “beta t1/2” value in the data set with Plasma [7] came to 9 h. Besides, the Retention_time in data set [8] worked out at 46.52 min.
`CN1CCc2nc(C(=O)N[C@@H]3C[C@@H](C(=O)N(C)C)CC[C@@H]3N)sc2C1` (stereo in doubt; M2) had a Retention_time in data set [8] of 34.09 min.
Take `CN1CCc2nc(C(=O)N[C@@H]3C[C@@H](C(=O)N(C)C)CC[C@@H]3NC(=O)C(=O)O)sc2C1`: the figures for the Drug excretion in [1] and in [2] (BLD = below limit of detection) were 1.85% and “BLD”, respectively. The Cmax in the data set with Plasma [3] stood at 14.9 ng/mL. The Tmax with Plasma [4] came out at 1.8 h. The compound further displayed an AUCt in the data set with Plasma [5] of 94.7 ng·h/mL. The same compound gave an AUC in the data set on Plasma [6] of 95.8 ng·h/mL. For the same compound, the “beta t1/2” value in the data set with Plasma [7] was found to be 6.9 h. Moreover, the Retention_time in data set [8] worked out at 25.41 min.
